Experimental data from US20240016831A1 (priority 2020, published 2024).

What was measured:
[1] = system: SARS-CoV-2 clinical isolate; assay type: cell-based
[2] = system: Vero E6 cells
[3] = assay type: physicochemical

## O=C(O)CC(O)(CC(=O)O)C(=O)O [citric acid pH 5.8, citric acid]
[1]
  in vitro antiviral action against SARS-CoV-2: high in vitro antiviral action
[2]
  cytotoxicity on the LDH assay: low cytotoxicity

## OC[C@@H](O)[C@@H](O)[C@H](O)[C@H](O)CO [mannitol, D-mannitol]
[3]; pH 5.8
  cumulative levels of NO: 1400 nmol NO per mg nitrite
[3]; pH 6.2
  difference in cumulative NO with and without mannitol: differences have disappeared

## CCN(CC)CCCC(C)Nc1ccnc2cc(Cl)ccc12 (stereo not drawn) [chloroquine, Chloroquine Phosphate, reference compound]
[1]
  SARS-CoV-2 virus titre: limit of detection (LOD)

## OC[C@@H](O)[C@H](O)[C@@H](O)CO [xylitol]
[3]; after 3000 s
  cumulative nitric oxide evolution: about 20000 nmol per mg nitrite
